Measurements from the supplement of paper PMC10307832.

Tests used:
Experiment in all cases: relative viability (nuclei count vs DMSO), 5 days (fraction); higher = more cells survive
[1] = tested on: NCI-H1623
How it was run: (§1)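 Values are medians from duplicate plates. Each reflects relative viability, defined as the nuclei count of treated wells over that of vehicle wells. Lung cancer cell lines in 1536-well plates were pin-tool dosed one day after seeding with one drug alone or with a fixed anchor-drug dose plus five library-drug doses (not always all listed) in √10 steps, then fixed, stained and imaged at 4× after 5 days.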

[2] = tested on: NCI-H2009
How it was run: as §1

[3] = tested on: A-427
How it was run: as §1

[4] = tested on: NCI-H1734
How it was run: as §1

[5] = tested on: UMC-11
How it was run: as §1

[6] = tested on: NCI-H1650
How it was run: as §1

[7] = tested on: CAL-12T
How it was run: as §1

[8] = tested on: LK-2
How it was run: as §1

[9] = tested on: EBC-1
How it was run: as §1

[10] = tested on: NCI-H1703
How it was run: as §1

[11] = tested on: IA-LM
How it was run: as §1

[12] = tested on: NCI-H1299
How it was run: as §1

[13] = tested on: Calu-6
How it was run: as §1

[14] = tested on: A549
How it was run: as §1

O=c1cc(N2CCOCC2)oc2c(-c3cccc4c3sc3ccccc34)cccc12 + CCNC(=O)c1noc(-c2cc(C(C)C)c(O)cc2O)c1-c1ccc(CN2CCOCC2)cc1 [Luminespib] (partner 0.01 µM)
relative viability ([1]; first compound 0.01 µM): 0.383
relative viability ([1]; first compound 0.03162 µM): 0.521
relative viability ([1]; first compound 0.1 µM): 0.495
relative viability ([1]; first compound 0.3162 µM): 0.475
relative viability ([1]; first compound 1 µM): 0.409
relative viability ([2]; first compound 0.01 µM): 0.931
relative viability ([2]; first compound 0.03162 µM): 0.899
relative viability ([2]; first compound 0.1 µM): 0.995
relative viability ([2]; first compound 0.3162 µM): 0.962
relative viability ([2]; first compound 1 µM): 0.97
relative viability ([3]; first compound 0.01 µM): 0.944
relative viability ([3]; first compound 0.03162 µM): 0.903
relative viability ([3]; first compound 0.1 µM): 0.898
relative viability ([3]; first compound 0.3162 µM): 0.93
relative viability ([3]; first compound 1 µM): 1.01
relative viability ([4]; first compound 0.01 µM): 0.199
relative viability ([4]; first compound 0.03162 µM): 0.168
relative viability ([4]; first compound 0.1 µM): 0.216
relative viability ([4]; first compound 0.3162 µM): 0.187
relative viability ([4]; first compound 1 µM): 0.179
relative viability ([5]; first compound 0.01 µM): 0.971
relative viability ([5]; first compound 0.03162 µM): 0.997
relative viability ([5]; first compound 0.1 µM): 1.12
relative viability ([5]; first compound 0.3162 µM): 0.986
relative viability ([5]; first compound 1 µM): 0.982
relative viability ([6]; first compound 0.01 µM): 0.211
relative viability ([6]; first compound 0.03162 µM): 0.169
relative viability ([6]; first compound 0.1 µM): 0.196
relative viability ([6]; first compound 0.3162 µM): 0.203
relative viability ([6]; first compound 1 µM): 0.191
relative viability ([7]; first compound 0.01 µM): 0.723
relative viability ([7]; first compound 0.03162 µM): 0.621
relative viability ([7]; first compound 0.1 µM): 0.292
relative viability ([7]; first compound 0.3162 µM): 0.31
relative viability ([7]; first compound 1 µM): 0.527
relative viability ([8]; first compound 0.01 µM): 0.181
relative viability ([8]; first compound 0.03162 µM): 0.217
relative viability ([8]; first compound 0.1 µM): 0.198
relative viability ([8]; first compound 0.3162 µM): 0.176
relative viability ([8]; first compound 1 µM): 0.139

O=c1cc(-c2cccc3c2Sc2ccccc2S3)oc(N2CCOCC2)c1 + COc1cc2c(Oc3ccc(NC(=O)C4(C(=O)Nc5ccc(F)cc5)CC4)cc3F)ccnc2cc1OCCCN1CCOCC1 [Foretinib] (partner 0.25 µM)
relative viability ([9]; first compound 0.08 µM): 0.106
relative viability ([9]; first compound 0.253 µM): 0.0935
relative viability ([9]; first compound 0.8 µM): 0.104
relative viability ([9]; first compound 2.53 µM): 0.105
relative viability ([9]; first compound 8 µM): 0.111
relative viability ([10]; first compound 0.08 µM): 0.348
relative viability ([10]; first compound 0.253 µM): 0.421
relative viability ([10]; first compound 0.8 µM): 0.273
relative viability ([10]; first compound 2.53 µM): 0.321
relative viability ([10]; first compound 8 µM): 0.334
relative viability ([11]; first compound 0.08 µM): 1.45
relative viability ([11]; first compound 0.253 µM): 1.33
relative viability ([11]; first compound 0.8 µM): 1.32
relative viability ([11]; first compound 2.53 µM): 1.04
relative viability ([11]; first compound 8 µM): 1.23
relative viability ([1]; first compound 0.08 µM): 0.834
relative viability ([1]; first compound 0.253 µM): 0.865
relative viability ([1]; first compound 0.8 µM): 0.765
relative viability ([1]; first compound 2.53 µM): 0.866
relative viability ([1]; first compound 8 µM): 0.917
relative viability ([2]; first compound 0.08 µM): 1.23
relative viability ([2]; first compound 0.253 µM): 1.21
relative viability ([2]; first compound 0.8 µM): 1.15
relative viability ([2]; first compound 2.53 µM): 1.12
relative viability ([2]; first compound 8 µM): 1.19
relative viability ([3]; first compound 0.08 µM): 1.05
relative viability ([3]; first compound 0.253 µM): 1
relative viability ([3]; first compound 0.8 µM): 1.06
relative viability ([3]; first compound 8 µM): 1.11
relative viability ([4]; first compound 0.08 µM): 0.788
relative viability ([4]; first compound 0.253 µM): 1.04
relative viability ([4]; first compound 0.8 µM): 0.99
relative viability ([4]; first compound 8 µM): 0.94
relative viability ([12]; first compound 0.08 µM): 1.09
relative viability ([12]; first compound 0.253 µM): 1.13
relative viability ([12]; first compound 0.8 µM): 1.15
relative viability ([12]; first compound 2.53 µM): 1.09
relative viability ([12]; first compound 8 µM): 1.1
relative viability ([13]; first compound 0.08 µM): 0.916
relative viability ([13]; first compound 0.253 µM): 0.963
relative viability ([13]; first compound 0.8 µM): 0.932
relative viability ([13]; first compound 2.53 µM): 0.867
relative viability ([13]; first compound 8 µM): 0.799
relative viability ([14]; first compound 0.08 µM): 1
relative viability ([14]; first compound 0.253 µM): 1.06
relative viability ([14]; first compound 0.8 µM): 1.15
relative viability ([14]; first compound 2.53 µM): 0.978
relative viability ([14]; first compound 8 µM): 1.03
relative viability ([5]; first compound 0.08 µM): 1.04
relative viability ([5]; first compound 0.253 µM): 1.03
relative viability ([5]; first compound 0.8 µM): 1.19
relative viability ([5]; first compound 2.53 µM): 1.03
relative viability ([5]; first compound 8 µM): 1.31
relative viability ([6]; first compound 0.08 µM): 1.35
relative viability ([6]; first compound 0.253 µM): 1.04
relative viability ([6]; first compound 0.8 µM): 0.998
relative viability ([6]; first compound 2.53 µM): 0.902
relative viability ([6]; first compound 8 µM): 1.19
relative viability ([7]; first compound 0.08 µM): 0.951
relative viability ([7]; first compound 0.253 µM): 1.15
relative viability ([7]; first compound 0.8 µM): 1.19
relative viability ([7]; first compound 2.53 µM): 1.14
relative viability ([7]; first compound 8 µM): 1
relative viability ([8]; first compound 0.08 µM): 0.933
relative viability ([8]; first compound 0.253 µM): 1.24
relative viability ([8]; first compound 0.8 µM): 1.23
relative viability ([8]; first compound 2.53 µM): 0.997
relative viability ([8]; first compound 8 µM): 1.25
